# Data reported in patent US7833939B2, “Herbicide compositions” (Kumiai Chemical Industry Co., Ltd., priority 2002, dated 2010).
# Experiments:
# corn = test: Herbicidal effect by upland field soil treatment (Application Example 1): phytotoxicity to corn; format: in vivo; details: 30th day from treatment
# Description: (§1) Test for Herbicidal Effect by Upland Field Soil Treatment
# (§2) An upland field soil was filled in a plastic pot of 11 cm each of length, width and depth. Seeds of corn, green foxtail (Setaria viridis) and common lambsquarters (Chenopodium album L.) were sowed, followed by covering with the same soil. The wettable powder produced in accordance with Formulation 1 was weighed so as to provide active ingredients in a predetermined amount, and was diluted with water and sprayed uniformly on the soil surface using a small sprayer, in an amount of 100 liters per […]. Then, growing was made in a greenhouse, and the herbicidal effect of each wettable powder was examined at the 30th day from the treatment in accordance with the standard shown in Table 15.
# [1] = tested on: green foxtail (Setaria viridis); test: Herbicidal effect by upland field soil treatment (Application Example 1): green foxtail; format: in vivo; details: 30th day from treatment
# Description: as §1, §2
# [2] = tested on: common lambsquarters (Chenopodium album L.); test: Herbicidal effect by upland field soil treatment (Application Example 1): common lambsquarters; format: in vivo; details: 30th day from treatment
# Description: as §1, §2
# [3] = 16 g a.i./ha, upland field soil treatment
# [4] = 32 g a.i./ha, upland field soil treatment
# [5] = 32 g a.i./ha, soil surface spray of wettable powder, index of Table 15
# [6] = 16 g a.i./ha, soil surface spray of wettable powder, index of Table 15
# [7] = 500 g a.i./ha, soil surface spray of wettable powder, index of Table 15
# [8] = 500 g a.i./ha, upland field soil treatment
smiles,measurement,setting,value
CC1(C)CC(SCc2c(C(F)(F)F)nn(-c3ccccc3)c2Cl)=NO1,melting point,,89 to 90 °C
"CC1(C)CC(S(=O)(=O)Cc2c(Cl)nn(C(F)F)c2C(F)(F)F)=NO1 [Compound 3-0011, 3-(3-chloro-1-difluoromethyl-5-trifluoromethyl-1H-pyrazol-4-ylmethylsulfonyl)-5,5-dimethyl-2-isoxazoline]",Herbicidal effect Corn,corn; [3],0 (Herbicidal effect or phytotoxicity of from 0 to 9%)
same,Herbicidal effect Green foxtail (Sataria viridis),[1]; [3],3 (Herbicidal effect or phytotoxicity of from 30 to 39%)
same,Herbicidal effect Common lambsquarter (Chenopodium album L.),[2]; [3],2 (Herbicidal effect or phytotoxicity of from 20 to 29%)
same,melting point,,136 to 137 °C
"CCn1nc(Cl)c(CS(=O)(=O)C2=NOC(C)(C)C2)c1Cl [Compound 3-0017, 3-(3,5-dichloro-1-ethyl-1H-pyrazol-4-ylmethylsulfonyl)-5,5-dimethyl-2-isoxazoline]",Herbicidal effect Corn,corn; [3],0 (Herbicidal effect or phytotoxicity of from 0 to 9%)
same,Herbicidal effect Green foxtail (Sataria viridis),[1]; [3],3 (Herbicidal effect or phytotoxicity of from 30 to 39%)
same,Herbicidal effect Common lambsquarter (Chenopodium album L.),[2]; [3],3 (Herbicidal effect or phytotoxicity of from 30 to 39%)
same,melting point,,105 to 107 °C
"CN(C)c1c(CS(=O)(=O)C2=NOC(C)(C)C2)c(C(F)(F)F)nn1-c1ccccc1 [Compound 3-0005, 5,5-dimethyl-3-(5-dimethylamino-1-phenyl-3-trifluoromethyl-1H-pyrazol-4-ylmethylsulfonyl)-2-isoxazoline]",Herbicidal effect Corn,corn; [4],0 (Herbicidal effect or phytotoxicity of from 0 to 9%)
same,Herbicidal effect Green foxtail (Sataria viridis),[1]; [4],2 (Herbicidal effect or phytotoxicity of from 20 to 29%)
same,Herbicidal effect Common lambsquarter (Chenopodium album L.),[2]; [4],2 (Herbicidal effect or phytotoxicity of from 20 to 29%)
same,melting point,,150 to 151 °C
CC1(C)CC(SCc2c(Cl)nn(C(F)F)c2C(F)(F)F)=NO1,melting point,,89 to 90 °C
"CC1(C)CC(S(=O)(=O)Cc2c(C(F)(F)F)nn(C(F)F)c2Cl)=NO1 [Compound 3-0010, 3-(5-chloro-1-difluoromethyl-3-trifluoromethyl-1H-pyrazol-4-ylmethylsulfonyl)-5,5-dimethyl-2-isoxazoline]",Herbicidal effect Corn,corn; [3],0 (Herbicidal effect or phytotoxicity of from 0 to 9%)
same,Herbicidal effect Green foxtail (Sataria viridis),[1]; [3],2 (Herbicidal effect or phytotoxicity of from 20 to 29%)
same,Herbicidal effect Common lambsquarter (Chenopodium album L.),[2]; [3],2 (Herbicidal effect or phytotoxicity of from 20 to 29%)
same,melting point,,126 to 127 °C
"CC1(C)CC(S(=O)(=O)Cc2c(C(F)(F)F)nn(-c3ccccc3)c2Cl)=NO1 [Compound 3-0002, 3-(5-chloro-1-phenyl-3-trifluoromethyl-1H-pyrazol-4-ylmethylsulfonyl)-5,5-dimethyl-2-isoxazoline]",Herbicidal effect Corn,corn; [4],0 (Herbicidal effect or phytotoxicity of from 0 to 9%)
same,Herbicidal effect Green foxtail (Sataria viridis),[1]; [4],5 (Herbicidal effect or phytotoxicity of from 50 to 59%)
same,Herbicidal effect Common lambsquarter (Chenopodium album L.),[2]; [4],2 (Herbicidal effect or phytotoxicity of from 20 to 29%)
same,melting point,,132 to 133 °C
CC1(C)CC(SCc2c(C(F)(F)F)nn(C(C)(C)C)c2Cl)=NO1,melting point,,79 to 81 °C
"CCS(=O)(=O)c1c(CS(=O)(=O)C2=NOC(C)(C)C2)c(C(F)(F)F)nn1-c1ccccc1 [Compound 3-0004, 5,5-dimethyl-3-(5-ethylsulfonyl-1-phenyl-3-trifluoromethyl-1H-pyrazol-4-ylmethylsulfonyl)-2-isoxazoline]",Herbicidal effect Corn,corn; [4],0 (Herbicidal effect or phytotoxicity of from 0 to 9%)
same,Herbicidal effect Green foxtail (Sataria viridis),[1]; [4],3 (Herbicidal effect or phytotoxicity of from 30 to 39%)
same,Herbicidal effect Common lambsquarter (Chenopodium album L.),[2]; [4],2 (Herbicidal effect or phytotoxicity of from 20 to 29%)
same,melting point,,158 to 160 °C
"Cc1nsc(Cl)c1CS(=O)(=O)C1=NOC(C)(C)C1 [Compound 4-0002, [(5-chloro-3-methyl-isothiazol-4-yl)-methylsulfonyl]-5,5-dimethyl-2-isoxazoline]",Herbicidal effect Corn,corn; [5],0 (Herbicidal effect or phytotoxicity of from 0 to 9%)
same,Herbicidal effect Green foxtail (Sataria viridis),[1]; [5],3 (Herbicidal effect or phytotoxicity of from 30 to 39%)
same,Herbicidal effect Common lambsquarter (Chenopodium album L.),[2]; [5],2 (Herbicidal effect or phytotoxicity of from 20 to 29%)
"Cn1nc(C(F)(F)F)c(CS(=O)(=O)C2=NOC(C)(C)C2)c1OC(F)F [Compound 3-0188, 3-(5-difluoromethoxy-1-methyl-3-trifluoromethyl-1H-pyrazol-4-ylmethanesulfonyl)-5,5-dimethyl-2-isoxazoline]",Herbicidal effect Green foxtail (Sataria viridis),[1]; [6],3 (Herbicidal effect or phytotoxicity of from 30 to 39%)
same,Herbicidal effect Common lambsquarter (Chenopodium album L.),[2]; [6],2 (Herbicidal effect or phytotoxicity of from 20 to 29%)
"Cn1nc(C(F)F)c(CS(=O)(=O)C2=NOC(C)(C)C2)c1Cl [Compound 3-0018, 3-(5-chloro-3-difluoromethyl-1-methyl-1H-pyrazol-4-ylmethylsulfonyl)-5,5-dimethyl-2-isoxazoline]",Herbicidal effect Corn,corn; [3],0 (Herbicidal effect or phytotoxicity of from 0 to 9%)
same,Herbicidal effect Green foxtail (Sataria viridis),[1]; [3],3 (Herbicidal effect or phytotoxicity of from 30 to 39%)
same,Herbicidal effect Common lambsquarter (Chenopodium album L.),[2]; [3],3 (Herbicidal effect or phytotoxicity of from 30 to 39%)
same,melting point,,78 to 79 °C
"COc1ncnc(C(F)(F)F)c1CS(=O)(=O)C1=NOC(C)(C)C1 [Compound 8-0001, 5,5-dimethyl-[(4-methoxy-6-trifluoromethylpyrimidin-5-yl)-methylsulfonyl]-2-isoxazoline]",Herbicidal effect Corn,corn; [6],0 (Herbicidal effect or phytotoxicity of from 0 to 9%)
same,Herbicidal effect Green foxtail (Sataria viridis),[1]; [6],2 (Herbicidal effect or phytotoxicity of from 20 to 29%)
same,Herbicidal effect Common lambsquarter (Chenopodium album L.),[2]; [6],1 (Herbicidal effect or phytotoxicity of from 10 to 19%)
"CCn1nc(C(F)(F)F)c(CS(=O)(=O)C2=NOC(C)(C)C2)c1OC(F)F [Compound 3-0190, 3-(5-difluoromethoxy-1-ethyl-3-trifluoromethyl-1H-pyrazol-4-ylmethanesulfonyl)-5,5-dimethyl-2-isoxazoline]",Herbicidal effect Corn,corn; [6],0 (Herbicidal effect or phytotoxicity of from 0 to 9%)
same,Herbicidal effect Green foxtail (Sataria viridis),[1]; [6],3 (Herbicidal effect or phytotoxicity of from 30 to 39%)
same,Herbicidal effect Common lambsquarter (Chenopodium album L.),[2]; [6],1 (Herbicidal effect or phytotoxicity of from 10 to 19%)
same,melting point,,98 to 100 °C
CC1(C)CC(SCc2c(C(F)(F)F)n[nH]c2Cl)=NO1,melting point,,120 to 122 °C
"CCNc1nc(Cl)nc(NC(C)(C)C#N)n1 [Cyanazine, cyanazine, reference compound]",Herbicidal effect Corn,corn; [7],0 (Herbicidal effect or phytotoxicity of from 0 to 9%)
same,Herbicidal effect Corn,corn; [8],0 (Herbicidal effect or phytotoxicity of from 0 to 9%)
same,Herbicidal effect Green foxtail (Sataria viridis),[1]; [7],1 (Herbicidal effect or phytotoxicity of from 10 to 19%)
same,Herbicidal effect Green foxtail (Sataria viridis),[1]; [8],1 (Herbicidal effect or phytotoxicity of from 10 to 19%)
same,Herbicidal effect Common lambsquarter (Chenopodium album L.),[2]; [7],2 (Herbicidal effect or phytotoxicity of from 20 to 29%)
same,Herbicidal effect Common lambsquarter (Chenopodium album L.),[2]; [8],2 (Herbicidal effect or phytotoxicity of from 20 to 29%)
CC1(C)CC(S(=O)(=O)Cc2cnccc2C(F)(F)F)=NO1,melting point,,77 to 80 °C
CC1(C)CC(SCc2c(C(F)(F)F)nn(C(F)F)c2Cl)=NO1,melting point,,41 to 42 °C
CC1(C)CC(S(=O)(=O)Cc2c(C(F)(F)F)nn3c2OCCC3)=NO1,melting point,,151 to 152 °C
